Read-outs that look alike come from different tables or passages of the source.
How the values were obtained:
S. aureus biofilms = test: In vitro anti-biofilm effect, viable CFU counting; type: cell-based, Staphylococcus aureus; conditions: 1% glutaric acid alone
Procedure: Test organisms: Pseudomonas aeruginosa or Staphylococcus aureus wild-type strains Biofilm type: 48 hours- or 24 hours-old biofilms grown on semipermeable membranes placed on solidified medium supplemented with 0.5% glucose. In the case of 48 h-old biofilms, the membranes with biofilms were transferred onto fresh plates after 24 h.
Initial viable cell amount: 5×10^9 colony forming units (CFUs)
Treatment method: Membranes with biofilms were transferred to new plates. Eight-10 layers of sterile gauze were placed on the second membrane, and 1 ml of antimicrobial solution was pipetted on the gauze layers. The treatment was carried out at room temperature for 2-to-3 h, or 4-to-6 h. In the case of the 4-to-6 h treatments, the gauze layers were replaced with fresh gauze layers with 1 ml sample solution 2 or 3 h after the treatments had been initiated.
Evaluation method: The gauze layers were discarded, and each membrane with biofilms was transferred into a 15 ml tube containing 5 ml 0.9% NaCl, vortexed for 10 sec., sonicated in an ultrasound bath for 10 min, and vortexed again for 10 sec. Ten-fold serial dilutions were made, and 10 ul of each dilution was spot-plated on LB plates for viable CFU counting.

[1] = cited from earlier work
[2] = cited from earlier work; remark: listed apart in the source
human rhinovirus (HRV) = conditions: low concentration nasal irrigation solution, in vitro, nasal epithelial cells; cited from earlier work
avian influenza virus = conditions: similar formulations, in vitro; cited from earlier work
[3] = test system: bacterial log CFU/g ground chicken ground meat; conditions: separately or in a mixture; cited from earlier work
[4] = Powder flow determination (funnel flow, angle of repose); type: physicochemical; conditions: for flowability: 100 g, funnel outflow opening 15 mm
Procedure: 100 g of powdered calcium hypochlorite of sizes ≤355 μm and ≤500 μm was added, respectively, into a dry funnel (Ø110 mm, diameter of the outflow opening=15 mm), whose bottom opening has been blocked by a plastic cover. The bottom opening of the funnel was unblocked to measure the time needed for the entire sample to flow out. The flowability of particle sizes ≤355 μm and ≤500 μm is, respectively, 35.7 g/s and 37.4 g/s. The angle of repose was calculated as 29.5° and 26.8° for particle sizes 355 μm and ≤500 μm, respectively.

[5] = Dissolving time of powdered calcium hypochlorite in acetic acid/acetate buffer; type: physicochemical; conditions: 2500 rpm
Procedure: • I. 58±4 mg of all sizes of the powdered material was, respectively, dissolved in 100 mL 0.25% wt. acetic acid/acetate buffer. Particle size ≤250 μm dissolved within 10 seconds, ≤355 μm within 15 seconds and ≤500 μm within one minute and 25 seconds at 2500 rpm. • II. 58±4 mg of all sizes of the powdered material was, respectively, dissolved in 100 mL 3.0% wt. acetic acid/acetate buffer. Particle size ≤250 μm dissolved within 10 seconds, ≤355 μm within 25 seconds and ≤500 μm within 25 seconds at 2500 rpm. • III. 570±40 mg of all sizes of the powdered material was, respectively, dissolved in 100 mL 0.25% wt. acetic acid/acetate buffer. Particle size ≤250 μm dissolved within 15 seconds, ≤355 μm within 45 seconds and ≤500 μm within one minute and 35 seconds at 2500 rpm. • IV. 570±40 mg of all sizes of the powdered material was, respectively, dissolved in 100 mL 3.0% wt. acetic acid/acetate buffer. Repeated with 3.0% acetic acid/acetate buffer. Particle size ≤250 μm dissolved within 15 seconds, ≤355 μm within 15 seconds and ≤500 μm within 20 seconds at 2500 rpm.

**Q.** With `O=C(O)CCCC(=O)O` [glutaric acid] as the compound, how does the “effect on the biofilm” value (S. aureus biofilms) read?
**A.** Its value is “only minor effect”.

**Q.** Which pKa [1] does the source give for `OCl` [hypochlorous acid] here?
**A.** The pKa was “about 7”.

**Q.** What about the standard reduction potential ([2]; basic pH) of the same compound?
**A.** Its standard reduction potential is “+0.89”.

**Q.** What about the standard reduction potential ([2]; low pH) of the same compound?
**A.** Its standard reduction potential is “+1.49”.

**Q.** What about the virus-killing effect (human rhinovirus (HRV)) of the same compound?
**A.** Its virus-killing effect is “significant virus-killing effect”.

**Q.** What about the “effects against avian influenza virus” value (avian influenza virus) of the same compound?
**A.** Its value is “good effects”.

**Q.** Which “reduction of bacterial log CFU/g” value [3] does the source give for `O=C([O-])CCC(=O)O.[Na+]` [monosodium succinate] here?
**A.** Its value is roughly 2 log.

**Q.** For `[Ca+2].[O-]Cl.[O-]Cl` [powdered calcium hypochlorite, calcium hypochlorite], which angle of repose ([4]; particle size 355 μm) is on record?
**A.** The angle of repose was 29.5 °.

**Q.** And the flowability ([4]; particle size ≤355 μm)?
**A.** Its flowability is 35.7 g/s.

**Q.** What about the angle of repose ([4]; particle size ≤500 μm) of the same compound?
**A.** Its angle of repose is 26.8 °.

**Q.** What about the flowability ([4]; particle size ≤500 μm) of the same compound?
**A.** The flowability was 37.4 g/s.

**Q.** What about the dissolving time ([5]; I: 58±4 mg in 100 mL 0.25% wt. acetic acid/acetate buffer, particle size ≤250 μm) of the same compound?
**A.** Its dissolving time is no more than 10 s.

**Q.** And the dissolving time ([5]; I: 58±4 mg in 100 mL 0.25% wt. buffer, particle size ≤355 μm)?
**A.** Its dissolving time is no more than 15 s.

**Q.** And the dissolving time ([5]; II: 58±4 mg in 100 mL 3.0% wt. acetic acid/acetate buffer, particle size ≤250 μm)?
**A.** Its dissolving time is no more than 10 s.

**Q.** And the dissolving time ([5]; II: 58±4 mg in 100 mL 3.0% wt. buffer, particle size ≤355 μm)?
**A.** Its dissolving time is no more than 25 s.

**Q.** And the dissolving time ([5]; II: 58±4 mg in 100 mL 3.0% wt. buffer, particle size ≤500 μm)?
**A.** The dissolving time was no more than 25 s.

**Q.** What about the dissolving time ([5]; III: 570±40 mg in 100 mL 0.25% wt. acetic acid/acetate buffer, particle size ≤250 μm) of the same compound?
**A.** Its dissolving time is no more than 15 s.

**Q.** And the dissolving time ([5]; III: 570±40 mg in 100 mL 0.25% wt. buffer, particle size ≤355 μm)?
**A.** Its dissolving time is no more than 45 s.

**Q.** And the dissolving time ([5]; IV: 570±40 mg in 100 mL 3.0% wt. acetic acid/acetate buffer, particle size ≤250 μm)?
**A.** Its dissolving time is no more than 15 s.

**Q.** And the dissolving time ([5]; IV: 570±40 mg in 100 mL 3.0% wt. buffer, particle size ≤355 μm)?
**A.** Its dissolving time is no more than 15 s.

**Q.** What about the dissolving time ([5]; IV: 570±40 mg in 100 mL 3.0% wt. buffer, particle size ≤500 μm) of the same compound?
**A.** The dissolving time was no more than 20 s.

**Q.** With `CC(=O)C(=O)O` [pyruvic acid] as the compound, how does the “reduction of bacterial log CFU/g” value [3] read?
**A.** The value was roughly 2 log.
